Mortality rate data for 1 compound are collected here from patent US20170356900A1, “TOXICANT ASSAYS FOR COSMETIC PRODUCTS” (priority 2016, published 2017).

For this data set, the system named is zebrafish (Danio rerio) AB strain embryos. Nature of the data set: Acute toxicity testing using zebrafish embryos (mortality after 48 hr exposure). The data set is classed as in vivo. The following applies: positive control, 3.7 mg/L; 48 hr exposure at 26° C. The procedure:
Extracts prepared as described in Example 1 were tested for acute toxicity using zebrafish (Danio rerio) AB strain embryos. BB cream extracts were diluted into zebrafish embryo culture medium at nominal concentrations of 0.3, 0.6, 1.4, 3.0 and 6.7 g/L. Zebrafish AB strain embryos of 4-128 cell stages were exposed to extract dilutions in a 96-well plate at 1 embryo per well. Each concentration was tested with 20 embryos. Zebrafish embryo culture medium and 3.7 mg/L dichloroaniline were included as negative and positive controls, respectively. After 48 hr exposure at 26° C., zebrafish embryos were observed under a stereomicroscope and fish embryos that were coagulated, tail not detached, and having no heart beat were marked as dead. Mortality rate for each concentration was calculated as the acute toxicity endpoint. The mortality rate for the negative control was 0% and for the positive control was 30%. […] Of the three BB cream extracts, brand C was the most toxic and brand B was the least toxic to zebrafish embryos.

Structures are written as SMILES.

As to `Nc1ccc(Cl)c(Cl)c1` [dichloroaniline], the mortality rate stood at 30%.
